Reference: patent publication US4873263A, “Rectally absorbable form of L-dopa” (priority 1988, dated 1989)
Structures can show the parent of a compound that is named as a salt. Where two headings read alike, the source gives them in different places.

Assays:
[1] = Rat plasma L-dopa and bioavailability after rectal microenema with carbidopa (Example 2); parameters: species or system rats; conditions: in vivo
Experimental: The experimental conditions of Example 1 were repeated, except that each formulation also contained 0.5 mg carbidopa, a decarboxylase inhibitor which is included to decrease L-dopa metabolism.

[2] = L-dopa bioavailability in Beagle dogs after rectal administration, oral carbidopa pretreatment (Example 3); format: in vivo; conditions: in words
Experimental: Aqueous formulations (pH 5.5, 0.1% ascorbic acid, 0.1 ml) containing […] L-dopa ethyl ester HCl (equivalent to 50 mg L-dopa) were prepared for administration to Beagle dogs. Each dog received the rectal formulation following a 3-day pretreatment with oral carbidopa (25 mg b.i.d.). Blood samples were collected for 360 minutes and plasma L-dopa levels determined by HPLC.

[3] = rat, in vivo
Experimental: Aqueous microenemas (250 μl) containing either 2.0 mg L-dopa or 2.66 mg L-dopa ethyl ester HCl (equivalent to 2.0 mg L-dopa) were prepared. The solutions were adjusted to pH 5.5 and contained 0.02% ascorbic acid to prevent oxidation. Blood samples were collected following rectal administration to anesthetized rats, and plasma L-dopa determined by HPLC.

[4] = dog, in vivo; cited from earlier work

Percent L-dopa Bioavailability [1]: 62 ± 32.7%
Percent L-dopa Bioavailability [3]: 12 ± 2.4%
Structure (SMILES): CCOC(=O)[C@@H](N)Cc1ccc(O)c(O)c1 [L-dopa ethyl ester HCl]
plasma drug levels [2]: significant increase in plasma drug levels
plasma levels of L-dopa [3]: significantly higher plasma levels of L-dopa
absorption by the rectal route in dogs [4]: not significantly absorbed in dogs
